Data published in patent publication US20230348394A1, “COMPOSITIONS AND METHODS FOR TREATING MUSCULAR DYSTROPHIES” (The Regents of the University of California, priority 2020, published 2023).

Key:
SSPN protein = assay: Sarcospan immunoblot of H2K mdx myotubes; assay type: cell-based, murine; settings: 2.5 to 10 μM, 48 hours
Experimental: (§1) Myotubes treated for 48 hrs were lysed using RIPA buffer (Thermo Fisher Scientific) containing Halt Protease Inhibitor Cocktail (Thermo Fisher Scientific). Cell lysates in RIPA buffer were rocked for 1 hr at 4° C. and centrifuged at 1,000 RPM for 30 mins at 4° C. The supernatant was collected, quantified for protein concentration using the DC protein assay (Bio-Rad), and normalized to 2 mg/ml in water and Laemmli sample buffer with a final concentration of 10% glycerol (Sigma-Aldrich), 5% beta-mercaptoethanol (Sigma-Aldrich), 3% sodium dodecyl sulfate (Sigma-Aldrich), and 0.05% bromophenol blue (Sigma-Aldrich). […] Autoradiography films were developed using a SRX-101A tabletop processor (Konica Minolta), scanned to a digital file, and analyzed by densitometry of bands using ImageJ version 1.51 s. […]
After excluding compounds that were unstable in solution or that produced highly variable results, nine compounds remained. […] To determine if the increase in SSPN mRNA was also evident at the protein level, we treated mdx myotubes with 2.5 to 10 μM of OT-9, PC1-36, and PC1-42 and analyzed total protein lysates by immunoblotting with SSPN antibodies.

[1] = test system: alpha-dystroglycan (α-DG); assay: Immunoblot of total protein lysates, C2C12 myotubes; assay type: cell-based, murine; settings: 5 μM, 48 hours
Experimental: as §1, with “(Sigma-Aldrich). For SDS-PAGE, samples were heated to 95° C. for 2 mins before loading 40 μg onto 4-12% tris-glycine or bis-tris polyacrylamide gels (Novex), electrophoresed for 2 hrs at 100 volts at RT, and transferred to a nitrocellulose membrane for 2 hrs at 100 volts at 4° C. Ponceau S staining was performed to visualize protein loading and verify protein transfer.” for “(Sigma-Aldrich).”

mdx myotubes = assay: Membrane stability assay (creatine kinase release after osmotic shock); assay type: cell-based, murine; settings: for CK release after osmotic shock: 5 μM
Experimental: The membrane stability assay was modified from previously described methods. The solutions for osmotic shock were prepared from a base solution containing 5 mM HEPES, 5 mM KCl, 1 mM MgCl2, 5 mM NaCl, 1.2 mM CaCl2), and 1 mM glucose. Sucrose was added to the base solutions to reach osmolarities of 50, 80, 100, 280, and 300 mosmol. The actual osmolarity was determined using a VAPRO vapor pressure osmometer (Wescor Inc.) Myotubes were treated for 48 hours and at day 4 of differentiation were subjected to 20 mins of osmotic shock at 37° C. using 28.5 to 223.5 milliosmole (mosmol) solutions. The supernatant was collected and centrifuged to separate cell debris. Adherent cells were trypsinized and pelleted before lysis with water and 3 freeze-thaw cycles. The Creatine Kinase Assay (Sekisui Diagnostics) was used to measure creatine kinase (CK) levels in both the supernatant and lysate fractions. In a 96-well plate, 4 μl of each sample and 140 μl of reagent was loaded per well in triplicate. The U/L of CK was calculated as follows: (mOD/min)(total volume in mL)(dilution factor)/(6.22M-lcm-1)(light path in cm)(sample volume in mL). The percent CK release was calculated as follows: CKextracellular/(CKextracellular+CKintracellular)*100.
The assay entails subjecting myotubes to osmotic shock, which causes cell swelling and membrane damage, allowing for intracellular CK to be released from the cell into the surrounding medium (FIG. 5a).
To assess the effect of SSPN knockdown on membrane stability in the absence of any compound treatment, we transfected mdx myotubes with 24 and 48 nM of scramble and SSPN siRNA and subjected the cells to osmotic shock with 45 mosmol solutions. […] We treated mdx myotubes with 10 μM of OT-9 in parallel with 24 nM of scramble or SSPN siRNA for 48 hours prior to osmotic shock and discovered that depletion of SSPN increased the CK release from 6.5% to 8% (FIG. 5d).

[2] = Half-life analysis in CD-1 mouse plasma; assay type: in vitro ADME, CD-1 mice; settings: 37° C.
Experimental: (§2) Half-life analysis was performed by Eurofins Panlabs Inc. using 1 μM of compound with a final DMSO concentration of 0.5%. PBS or plasma from CD-1 mice was pre-warmed to 37° C. for 5 mins before addition of the test compounds and continued incubation at 37° C. At 0, 30, 60, 120, 240, and 1440 mins an aliquot of solution containing compounds was mixed with acetonitrile/methanol, mixed, and centrifuged. The supernatants were used for HPLC-MS/MS analysis.

[3] = Half-life analysis in PBS pH 7.4; assay type: physicochemical; settings: PBS pH 7.4, 37° C.
Experimental: as §2

Structure (SMILES): CCN(CC)c1ccc2cc(C(=O)Nc3ccc(C(=O)N4CCCCCC4)cc3)c(=O)oc2c1 [OT-9]
- increase of SSPN protein levels (SSPN protein): 1.5 fold
- increase of core α-DG in total protein lysates [1]: 1.5 fold
- levels of glycosylated α-DG in total protein lysates [1]: did not increase levels of glycosylated α-DG
- CK release after osmotic shock (mdx myotubes; 48 hours, 28.5 mosmol solution): did not reduce CK release
- CK release after osmotic shock (mdx myotubes; 48 hours, 45, 63 and 223.5 mosmol solutions): significantly reduced CK release
- CK release (mdx myotubes; 10 μM OT-9 with 24 nM SSPN siRNA, 48 hours): 8%
- CK release (mdx myotubes; 10 μM OT-9 with 24 nM scramble siRNA, 48 hours): 6.5%
- half-life at 1 μM [2]: 7.7 h
- half-life at 1 μM [3]: 0.817 h
